The subject of one data set is soil urease. To be noted: surface application of urea; literature; cited from earlier work.
The test system of data set [1] is urease. Kind of data set: Ammonia volatilization from soil-applied urea solution with additive compound (continuous air purge, ammonia collected in sulfuric acid, indophenol blue method). As to the method: The amount of additive compound set forth in Table 1 below was added to a solution of reagent grade urea having a urea concentration of 13850 micrograms of nitrogen per 2 ml, together with the desired amount of compound. This urea concentration was selected to be equivalent to an application rate of 100 lbs of nitrogen per acre. A standard sample containing only urea in the same concentration and an unfertilized blank (2 ml of distilled water) also were applied to soil.
The amounts of additive compound were calculated to provide the desired quantity of that compound appropriate for application of a 50 percent w/v solution of urea (i.e., 50 grams of urea per 100 ml of water) to supply 100 lbs of nitrogen per acre. Each additive compound was used at 5 and 10 percent of the volume of urea solution. The treatments were therefore equivalent to the application 198 liters (52.3 US gallons) of urea solution per acre together with 9.9 liters (2.6 US gallons) of additive compound at the low rate or 19.8 liters (5.2 US Gallons) at the high rate.
Soil was treated and ammonia measurements were taken in accordance with the following method. Plastic containers with a diameter of 4.2 cm were used for this study. Each container was filled with 60 g of a sandy soil and moistened with 12 mls water to 86% of its water holding capacity. All treatments were surface applied in 2 mls of solution, bringing the moisture level up to field capacity.
The air was humidified before introduction by bubbling it through distilled water, then passing it through a cotton plug to remove moisture droplets. Evolved ammonia was collected by passing the air through 50 mls of 0.5 M sulfuric acid. This was sufficient to collect 3 times the total amount of nitrogen added, ensuring that the solution never became saturated with ammonia. The amounts of ammonia collected in the sulfuric acid solutions were determined by the indophenol blue method.
Ammonia measurements were taken at 2 and 7 days after application. […] The amounts of ammonia collected are expressed as a percentage of the total that was applied.
The amount of additive compound set forth in Table 3 below was added to a solution of reagent grade urea having a urea concentration of 13850 micrograms of nitrogen per 2 ml, together with the desired amount of compound. This urea concentration was selected to be equivalent to an application rate of 100 lbs of nitrogen per acre. A standard sample containing only urea in the same concentration and an unfertilized blank (2 ml of distilled water) also were applied to soil.
The amounts of additive compound were calculated to provide the desired quantity of that compound appropriate for application of a 50 percent w/v solution of urea (i.e., 50 grams of urea per 100 ml of water) to supply 100 lbs of nitrogen per acre. The urea and additive compounds were applied to soil in accordance with the method described in Example 1.
Calcium polysulfide solution was added at a rate of 1, 2, 4 and 8 percent of the volume of urea solution. K-Sul® was added at a rate of 5 and 10 percent of the volume of urea solution. Ammonia measurements were taken at 2 and 7 days after application. […] The amounts of ammonia collected are expressed as a percentage of the total that was applied.
In each treatment, the appropriate amount of product was added to a solution of reagent grade urea and made to 100 mls in volumetric flasks. Concentrations were adjusted to ensure that the 2 mls of each solution provided 13850 micrograms of nitrogen together with the required amount of product to provide the equivalent of an application rate of 100 lbs of nitrogen per acre. A standard sample contained only urea and an unfertilized blank was treated with 2 mls of distilled water.

Data set [2] is described as follows: pH of the solutions of urea and additive compound. Format: physicochemical. To be noted: urea-only solution.
The test system of data set [3] is urease. To be noted: Example 6.
A further data set has as its system nitrification. To be noted: combination with UAN or banded urea solution; literature; cited from earlier work.
The mark [4] stands for this setting: Example 1, urea only, no additive.
Where [5] appears, read: Example 3, urea only, no additive.
Setting [6] is: Example 5, urea only, no additive.

Read-outs that look alike come from different tables or passages of the source.

For `[Ca+2].[Cl-].[Cl-]` [Calcium chloride], the “effect on ammonia volatilization (in words)” value in the data set with soil urease is reported as “delays the start of ammonia volatilization”.

As to `NC(N)=O` [Urea], in the data set on urease [1] (setting [4]), the “% Loss 0-2 days” value is reported as 22.0%, the “% Loss 3-7 days” value is 3.9% and the “% Loss Total” value was 25.9%. For the same compound, in the data set on urease [1] (setting [5]), the “% lost 0-2 days” value came to 25.56%, the “% lost 3-7 days” value worked out at 11.45% and the “% lost Total” value was determined as 37.01%. In the data set on urease [1] (setting [6]), the “% lost 0-2 days” value worked out at 25.50%, the “% lost 3-7 days” value is given as 8.25% and the “% lost Total” value is given as 33.75%. Moreover, the “Solution pH” value in data set [2] (Example 2) was 8.4. In addition, the “Solution pH” value in data set [2] (Example 4) was 9.0. In the data set with urease [3] (100 lbs N per ac), the “% of N applied” value was found to be 2.07%; the “Ammonia collected, mg Day 2” value is reported as 0.14 mg; the “Ammonia collected, mg Day 7” value was 2.32 mg; the “Ammonia collected, mg Day 14” value is given as 0.78 mg. In addition, in the data set with urease [3] (100 lbs N per ac), the “Ammonia collected, mg Day 21” value was 0.00 mg; the “Ammonia collected, mg Day 28” value is 0.00 mg; the “Ammonia collected, mg Total” value worked out at 3.25 mg. In addition, in the data set with urease [3] (200 lbs N per ac), the “% of N applied” value was determined as 3.17%; the “Ammonia collected, mg Day 2” value was determined as 0.31 mg; the “Ammonia collected, mg Day 7” value was 4.86 mg; the “Ammonia collected, mg Day 14” value is on record as 4.31 mg. Moreover, in the data set with urease [3] (200 lbs N per ac), the “Ammonia collected, mg Day 21” value was 0.47 mg; the “Ammonia collected, mg Day 28” value is listed as 0.00 mg; the “Ammonia collected, mg Total” value is listed as 9.94 mg.

For the compound ammonium polyphosphate, the “effect on nitrification (in words)” value in the data set with nitrification is recorded as “only a weak effect”.

As to ammonium polysulfide, the “effect on nitrification (in words)” value in the data set on nitrification is recorded as “no effect on nitrification”. For the same compound, the “urease inhibition and ammonia volatilization inhibition, comparison between products (in words)” value with urease [1] (summary of Examples 1-4) is listed as “less urease inhibition activity than calcium polysulfide”.

Source of the values: US20060185411A1, “Calcium polysulfide, potassium polysulfide, calcium thiosulfate, and magnesium thiosulfate as urease inhibitors” (Tessenderlo Kerley, Inc., priority 2005, published 2006).
